Reference: patent publication US20250320213A1, “Nitrogen-Containing Heterocyclic Compounds” (Pfizer Inc., priority 2024, published 2025)
Read-outs that look alike come from different tables or passages of the source.

Tests used:
[1] = system: CCL17 secretion in peripheral human whole blood; assay: Human Whole Blood (HWB) CCL17 TR-FRET Assay (IL-13 stimulated CCL17 secretion); assay type: cell-based
Outline: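 Heparinized peripheral human whole blood was preincubated with compound (11-point, 3-fold series, duplicate) for 2 h at 37 °C, then stimulated with IL-13 at 10 ng/mL final for 48 h at 37 °C. Secreted CCL17 in the serum was quantified by TR-FRET sandwich immunoassay (665/615 nm ratio, 16 h RT); IC50 derived.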

STAT6 = biological target: T1, STAT6 (Homo sapiens, UniProt P42226); assay: STAT6 Reporter Luciferase Assay (IL-13 stimulated HaCaT keratinocyte NanoLuc reporter cells); assay type: cell-based; settings: read-out: Reporter EC50
T1 construct: stably transfected HaCaT keratinocyte cell line, which expresses NanoLuc luciferase reporter gene under the transcriptional control of the STAT6 responsive promoter; endogenous in cells; host or cells: HaCaT keratinocyte reporter cell line (stably transfected with a NanoLuc reporter)
T1 sequence (P42226 1-847): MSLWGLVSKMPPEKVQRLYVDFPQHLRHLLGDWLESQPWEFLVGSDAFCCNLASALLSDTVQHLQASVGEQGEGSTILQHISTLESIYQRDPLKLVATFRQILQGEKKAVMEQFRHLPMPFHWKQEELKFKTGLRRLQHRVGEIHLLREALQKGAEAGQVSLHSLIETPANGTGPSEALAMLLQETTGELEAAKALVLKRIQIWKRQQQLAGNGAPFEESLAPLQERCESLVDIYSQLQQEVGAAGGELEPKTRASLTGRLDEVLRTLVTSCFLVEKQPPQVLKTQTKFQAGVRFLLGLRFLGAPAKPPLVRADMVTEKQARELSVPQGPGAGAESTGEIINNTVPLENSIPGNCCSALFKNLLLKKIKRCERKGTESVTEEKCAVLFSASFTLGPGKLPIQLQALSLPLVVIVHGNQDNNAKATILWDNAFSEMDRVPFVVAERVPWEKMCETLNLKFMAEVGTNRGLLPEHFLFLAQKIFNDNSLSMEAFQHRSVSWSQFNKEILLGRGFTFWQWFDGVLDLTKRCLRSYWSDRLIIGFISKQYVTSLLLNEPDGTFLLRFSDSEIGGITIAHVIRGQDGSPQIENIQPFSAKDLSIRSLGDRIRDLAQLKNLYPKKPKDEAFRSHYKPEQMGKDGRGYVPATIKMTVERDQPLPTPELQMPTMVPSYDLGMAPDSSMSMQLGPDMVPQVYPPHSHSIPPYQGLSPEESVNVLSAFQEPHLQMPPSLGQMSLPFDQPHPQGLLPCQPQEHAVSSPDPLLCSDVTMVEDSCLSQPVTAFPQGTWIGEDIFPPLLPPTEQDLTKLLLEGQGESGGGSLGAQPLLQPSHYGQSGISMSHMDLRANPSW
Outline: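 HaCaT IL-13Ra2-promoter NanoLuc reporter; cpd 2 h 37 °C in DMEM/2% HI FBS; IL-13 0.12 nM final, 4 h; Nano-Glo luminescence.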

[2] = Homo sapiens, 48 h, inhibition of CCL17 secretion in human whole blood, 10 ng/mL IL13, 48 hours
[3] = STAT6 NanoLuc luciferase reporter, IL-13 stimulated HaCaT keratinocyte cells
[4] = Homo sapiens, 48 h, human whole blood, 10 ng/mL IL13, 48 hours
[5] = IL-13 stimulated HaCaT STAT6 NanoLuc reporter cells
[6] = human whole blood, IL-13 stimulated, 48 hours
[7] = Homo sapiens, 48 h, human whole blood, IL-13 stimulated

Compound	EC50 (STAT6; [3])	EC50 (STAT6; [5])	also measured
CC(C)n1nc(C(=O)NCc2ccc(-c3nccc(=O)[nH]3)cc2)c2c1CCN(c1ccc(C(=O)N(C)C)cn1)C2 [Example 43, 5-(5-(Dimethylcarbamoyl)pyridin-2-yl)-1-isopropyl-N-(4-(6-oxo-1,6-dihydropyrimidin-2-yl)benzyl)-4,5,6,7-tetrahydro-1H-pyrazolo[4,3-c]pyridine-3-carboxamide]	286 nM		IC50 [1, 2]: 1300 nM
C[C@H]1Cc2c(c(C(=O)NCc3ccc(NC(=O)N(C)C)cc3)nn2C)CN1c1ccc(C(=O)N(C)C)cn1 [Example 51, (S)-5-(5-(dimethylcarbamoyl)pyridin-2-yl)-N-(4-(3,3-dimethylureido)benzyl)-1,6-dimethyl-4,5,6,7-tetrahydro-1H-pyrazolo[4,3-c]pyridine-3-carboxamide]	4 nM		IC50 [1, 2]: 30 nM
CN(C)C(=O)Nc1ccc(CNC(=O)c2nn(C(C)(C)C)c3c2CN(c2ccc(C(=O)N(C)C)cn2)CC3)cc1 [Example 148, 1-(tert-butyl)-5-(5-(dimethylcarbamoyl)pyridin-2-yl)-N-(4-(3,3-dimethylureido)benzyl)-4,5,6,7-tetrahydro-1H-pyrazolo[4,3-c]pyridine-3-carboxamide]	10 nM		IC50 [1, 2]: 176 nM
CC(C)n1nc(C(=O)NCc2ccc(-c3ncc[nH]3)cc2)c2c1C[C@H](C)N(c1ccc(C(=O)N(C)C)cn1)C2 [Example 536, (S)-N-(4-(1H-imidazol-2-yl)benzyl)-5-(5-(dimethylcarbamoyl)pyridin-2-yl)-1-isopropyl-6-methyl-4,5,6,7-tetrahydro-1H-pyrazolo[4,3-c]pyridine-3-carboxamide]		4 nM	IC50 [1, 4]: 31 nM
CCC(C)n1nc(C(=O)NCc2ccc(NC(=O)N(C)C)cc2)c2c1[C@@H](C)CN(c1ccc(C(=O)N(C)C)cn1)C2 (single isomer, unassigned) [Example 319, (S)-1-((R*)-sec-butyl)-5-(5-(dimethylcarbamoyl)pyridin-2-yl)-N-(4-(3,3-dimethylureido)benzyl)-7-methyl-4,5,6,7-tetrahydro-1H-pyrazolo[4,3-c]pyridine-3-carboxamide]		1 nM	IC50 [1, 6]: 13 nM
CCn1nc(C(=O)NCc2ccc(NC(=O)N(C)C)cc2)c2c1[C@H]1CC[C@H]1N(c1ccc(C(=O)N(C)C)cn1)C2 (single isomer, unassigned) [Example 230]		14 nM	IC50 [1, 6]: 277 nM
CN[C@@H]1CCN(C(=O)Nc2ccc(CNC(=O)c3nn(C(C)C)c4c3CN(c3ccc(C(=O)N(C)C)cc3)C[C@@H]4C)cc2)C1 [Example 722, (S)-5-(4-(dimethylcarbamoyl)phenyl)-1-isopropyl-7-methyl-N-(4-((R)-3-(methylamino)pyrrolidine-1-carboxamido)benzyl)-4,5,6,7-tetrahydro-1H-pyrazolo[4,3-c]pyridine-3-carboxamide]		8 nM	IC50 ([1]; Homo sapiens, 48 h, human whole blood, IL-13 10 ng/mL): 40 nM
CC(C)n1nc(C(=O)NCc2ccc(NC(=O)N(C)C)cc2)c2c1[C@@H](C)CN(c1ccc(C(=O)N(C)CC3CN(C)C3)cc1)C2 [Example 629, (S)-N-(4-(3,3-dimethylureido)benzyl)-1-isopropyl-7-methyl-5-(4-(methyl((1-methylazetidin-3-yl)methyl)carbamoyl)phenyl)-4,5,6,7-tetrahydro-1H-pyrazolo[4,3-c]pyridine-3-carboxamide]		121 nM	IC50 [1, 4]: 390 nM
CCC1Cc2c(c(C(=O)NCc3ccc(NC(=O)N(C)C)cc3)nn2C)CN1c1ccc(C(=O)N(C)C)cn1 (single isomer, unassigned) [Example 270, rel-(R or S)-5-(5-(dimethylcarbamoyl)pyridin-2-yl)-N-(4-(3,3-dimethylureido)benzyl)-6-ethyl-1-methyl-4,5,6,7-tetrahydro-1H-pyrazolo[4,3-c]pyridine-3-carboxamide]		7 nM	IC50 [1, 6]: 33 nM
CCC1CN(c2ccc(C(=O)N(C)C)cn2)Cc2c(C(=O)NCc3ccc(NC(=O)N(C)C)cc3)n[nH]c21 (single isomer, unassigned) [Example 83, rel-(R or S)-5-(5-(dimethylcarbamoyl)pyridin-2-yl)-N-(4-(3,3-dimethylureido)benzyl)-7-ethyl-4,5,6,7-tetrahydro-1H-pyrazolo[4,3-c]pyridine-3-carboxamide]	86 nM		IC50 ([1]; inhibition of CCL17 secretion in human whole blood, 10 ng/mL IL13, 48 hours): 278 nM
CCn1nc(C(=O)NCc2ccc(NC(=O)N(C)C)cc2)c2c1CC(C(F)(F)F)N(c1ccc(C(=O)N(C)C)cn1)C2 (single isomer, unassigned) [Example 251, rel-(R or S)-5-(5-(dimethylcarbamoyl)pyridin-2-yl)-N-(4-(3,3-dimethylureido)benzyl)-1-ethyl-6-(trifluoromethyl)-4,5,6,7-tetrahydro-1H-pyrazolo[4,3-c]pyridine-3-carboxamide]		10 nM	IC50 [1, 6]: 80 nM
CC(C)n1nc(C(=O)NCc2ccc(NC(=O)N3C[C@@H](F)[C@@H](F)C3)cc2)c2c1CCN(c1ccc(C(=O)N(C)C)cn1)C2 [Example 140, N-(4-((3R,4S)-3,4-difluoropyrrolidine-1-carboxamido)benzyl)-5-(5-(dimethylcarbamoyl)pyridin-2-yl)-1-isopropyl-4,5,6,7-tetrahydro-1H-pyrazolo[4,3-c]pyridine-3-carboxamide]	12 nM		IC50 [1, 2]: 144 nM
CCn1nc(C(=O)NCc2ccc(-c3ncc[nH]3)cc2)c2c1[C@@H](C)CN(c1ccc(C(=O)N(C)C)cn1)C2 [Example 283, (S)-N-(4-(1H-imidazol-2-yl)benzyl)-5-(5-(dimethylcarbamoyl)pyridin-2-yl)-1-ethyl-7-methyl-4,5,6,7-tetrahydro-1H-pyrazolo[4,3-c]pyridine-3-carboxamide]		2 nM	IC50 [1, 7]: 11 nM
CCn1nc(C(=O)NCc2ccc(NC(=O)N(C)C)cc2)c2c1[C@@H](C)CN(c1ccc(C(=O)N3Cc4cccnc4C3)cn1)C2 [Example 477, (S)-5-(5-(6,7-dihydro-5H-pyrrolo[3,4-b]pyridine-6-carbonyl)pyridin-2-yl)-N-(4-(3,3-dimethylureido)benzyl)-1-ethyl-7-methyl-4,5,6,7-tetrahydro-1H-pyrazolo[4,3-c]pyridine-3-carboxamide]		0.4 nM	IC50 [1, 7]: 4 nM
CC1CN(c2ccc(C(=O)N(C)C)cn2)Cc2c(C(=O)NCc3ccc(NC(=O)N(C)C)cc3)nn(C3COC3)c21 (racemic) [Example 321, rac-(R)-5-(5-(dimethylcarbamoyl)pyridin-2-yl)-N-(4-(3,3-dimethylureido)benzyl)-7-methyl-1-(oxetan-3-yl)-4,5,6,7-tetrahydro-1H-pyrazolo[4,3-c]pyridine-3-carboxamide]		3 nM	IC50 [1, 7]: 22 nM
CC(C)n1nc(C(=O)NCc2ccc(N)cc2)c2c1[C@@H](C)CN(c1ncc(C(=O)N(C)C)cn1)C2 [Example 491, (S)-N-(4-aminobenzyl)-5-(5-(dimethylcarbamoyl)pyrimidin-2-yl)-1-isopropyl-7-methyl-4,5,6,7-tetrahydro-1H-pyrazolo[4,3-c]pyridine-3-carboxamide]		7 nM	IC50 [1, 7]: 34 nM
CC(C)n1nc(C(=O)NCc2ccc(NC(=O)N3CCCN(C)CC3)cc2)c2c1[C@@H](C)CN(c1ccc(C(=O)N(C)C)cn1)C2 [Example 615, (S)-5-(5-(dimethylcarbamoyl)pyridin-2-yl)-1-isopropyl-7-methyl-N-(4-(4-methyl-1,4-diazepane-1-carboxamido)benzyl)-4,5,6,7-tetrahydro-1H-pyrazolo[4,3-c]pyridine-3-carboxamide]		2 nM	IC50 [1, 4]: 13 nM
CC(C)n1nc(C(=O)NCc2ccc(NC(=O)N(C)C)cc2)c2c1CCN(c1ccc(C(N)=O)cn1)C2 [Example 137, 5-(5-carbamoylpyridin-2-yl)-N-(4-(3,3-dimethylureido)benzyl)-1-isopropyl-4,5,6,7-tetrahydro-1H-pyrazolo[4,3-c]pyridine-3-carboxamide]	1860 nM		IC50 [1, 2]: 9690 nM
